Results: patent US20230348426A1, “OXOPYRROLIDINE FPR2 AGONISTS” (Bristol-Myers Squibb Company, priority 2020, published 2023)

Columns and labels:
human FPR1 = human FPR1 (Homo sapiens (Human), UniProt P21462); assay: FPR1 cyclic adenosine monophosphate (cAMP) assay; format: cell-based; details: CHO cells overexpressing human FPR1; forskolin 10 µM; inhibition of cAMP production; read-out: hFPR1 cAMP EC50
How it was run: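 CHO cells overexpressing human FPR1 (4,000 cells/well) stimulated with 10 µM forskolin plus 200 µM IBMX in the presence of compound (0.020 nM–100 µM, 1% DMSO), 30 min at room temperature. Intracellular cAMP measured by HTRF. Inhibition of cAMP production fitted to a 4-parameter logistic equation.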

human FPR2 = human FPR2 (Homo sapiens (Human), UniProt P25090); assay: FPR2 cyclic adenosine monophosphate (cAMP) assay; format: cell-based; details: CHO cells overexpressing human FPR2; forskolin 5 µM; inhibition of cAMP production; read-out: hFPR2 cAMP2 EC50
How it was run: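 CHO cells overexpressing human FPR2 (2,000/well) incubated 30 min at room temperature with compound (0.020 nM–100 µM, 1% DMSO), 5 µM forskolin and 200 µM IBMX.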

Sequence of human FPR1 (P21462 whole entry): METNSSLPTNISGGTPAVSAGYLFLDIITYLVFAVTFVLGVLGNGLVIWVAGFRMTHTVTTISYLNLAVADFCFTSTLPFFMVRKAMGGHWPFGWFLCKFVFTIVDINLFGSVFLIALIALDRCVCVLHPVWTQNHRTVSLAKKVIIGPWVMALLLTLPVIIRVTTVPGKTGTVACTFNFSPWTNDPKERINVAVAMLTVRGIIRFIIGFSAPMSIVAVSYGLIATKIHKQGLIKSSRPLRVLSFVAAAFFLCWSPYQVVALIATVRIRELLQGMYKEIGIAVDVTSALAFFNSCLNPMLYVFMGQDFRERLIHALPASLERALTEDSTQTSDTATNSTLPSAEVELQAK
Sequence of human FPR2 (P25090 whole entry): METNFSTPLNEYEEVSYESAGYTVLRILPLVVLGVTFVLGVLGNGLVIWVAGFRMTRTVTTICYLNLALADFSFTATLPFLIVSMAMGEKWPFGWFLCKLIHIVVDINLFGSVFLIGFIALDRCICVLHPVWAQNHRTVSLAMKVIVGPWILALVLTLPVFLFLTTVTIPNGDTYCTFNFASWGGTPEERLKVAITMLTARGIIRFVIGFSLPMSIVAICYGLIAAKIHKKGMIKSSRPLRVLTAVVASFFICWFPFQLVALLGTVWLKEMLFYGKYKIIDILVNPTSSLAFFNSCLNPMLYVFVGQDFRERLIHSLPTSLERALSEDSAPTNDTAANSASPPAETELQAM

| SMILES | EC50 (human FPR1) [nM] | EC50 (human FPR2) [nM] |
| --- | --- | --- |
| COc1cc(F)c([C@@H]2CN(c3cc(Cl)cc(C(F)(F)F)c3)C(=O)[C@H]2NC(=O)c2ccc(OC(F)F)cc2)c(F)c1 [Example 12] | > 10000 | 91 |
| COc1cc(F)c([C@@H]2CN(c3ncn(CC(C)C)n3)C(=O)[C@H]2NC(=O)c2ccc(Cl)cc2)c(F)c1 [Example 532] | 630 | 2.3 |
| COc1cc(F)c([C@@H]2CN(c3nc(NC4CCOC4)ccc3F)C(=O)[C@H]2NC(=O)c2ccc(OC(F)F)cc2)c(F)c1 (stereo partly shown) [Example 122] | 1080 | 3.2 |
| COc1cc(F)c([C@@H]2CN(c3ncccc3C(F)(F)F)C(=O)[C@H]2NC(=O)c2ccc(Cl)nc2)c(F)c1 [Example 344] | 2000 | 46 |
| COc1cc(F)c([C@@H]2CN(c3nc(N4CC(F)(F)C4)ccc3F)C(=O)[C@H]2NC(=O)c2ccc(OC(F)F)cc2)c(F)c1 [Example 117] | 210 | 3.1 |
| COc1cc(F)c([C@@H]2CN(c3ccc[nH]c3=O)C(=O)[C@H]2NC(=O)c2ccc(Cl)cc2)c(F)c1 [Example 87] | 750 | 2.3 |
| COc1cc(F)c([C@@H]2CN(c3cccc(OC(F)F)c3)C(=O)[C@H]2NC(=O)c2ccc(OC(F)(F)F)cc2)c(F)c1 [Example 184] | 9.8 | 4.8 |
| COc1cc(F)c([C@@H]2CN(c3nc(NC(C)=O)ccc3F)C(=O)[C@H]2NC(=O)c2ccc(OC(F)(F)F)cc2)c(F)c1 [Example 206] | 24 | 5.4 |
| COc1cc(F)c([C@@H]2CN(c3c(C)ccn(CC4CCOC4)c3=O)C(=O)[C@H]2NC(=O)c2ccc(OC(F)(F)F)cc2)c(F)c1 (stereo partly shown) [Example 697] | 6.7 | 3.6 |
| COc1cc(F)c([C@@H]2CN(c3nccc(N4CCN(S(C)(=O)=O)CC4)c3C(F)(F)F)C(=O)[C@H]2NC(=O)c2ccc(OC(F)F)cc2)c(F)c1 [Example 282] | 700 | 8.3 |
| COc1cc(F)c([C@@H]2CN(c3cccn(CC(C)O)c3=O)C(=O)[C@H]2NC(=O)c2ccc(OC(F)F)cc2)c(F)c1 (stereo partly shown) [Example 104] | 120 | 2.9 |
| COc1cc(F)c([C@@H]2CN(c3nc(N4C(=O)CC[C@H]4CO)ccc3F)C(=O)[C@H]2NC(=O)c2ccc(OC(F)F)cc2)c(F)c1 [Example 266] | 410 | 7.6 |
| COc1cc(F)c([C@@H]2CN(c3cccnc3P(C)(C)=O)C(=O)[C@H]2NC(=O)c2ccc(Cl)cc2)c(F)c1 [Example 305] | 1300 | 9.6 |
| COc1cc(F)c([C@@H]2CN(c3cc(C)cc(N4C[C@@H]5C[C@H]4CN5C)n3)C(=O)[C@H]2NC(=O)c2ccc(OC(F)(F)F)cc2)c(F)c1 [Example 571] | 580 | 6 |
| COc1cc(NCCO)nc(N2C[C@@H](c3c(F)cc(OC)cc3F)[C@H](NC(=O)c3ccc(Cl)cc3)C2=O)c1 [Example 106] | 870 | 2.9 |
| COc1cc(F)c([C@@H]2CN(c3nc(N4CCN(C)CC4)ccc3OC)C(=O)[C@H]2NC(=O)c2ccc(OC(F)F)cc2)c(F)c1 [Example 303] | 390 | 9.6 |
| COCCn1cccc(N2C[C@@H](c3c(F)cc(OC)cc3F)[C@H](NC(=O)c3ccc(OC(C)C)cc3)C2=O)c1=O [Example 347] | 840 | 110 |
| COc1cc(F)c([C@@H]2CN(c3nccc(OC4CCOC4)c3C(F)(F)F)C(=O)[C@H]2NC(=O)c2ccc(Cl)cc2)c(F)c1 (stereo partly shown) [Example 709] | 210 | 14 |
| COc1cc(F)c([C@@H]2CN(c3cn(C)nc3OC)C(=O)[C@H]2NC(=O)c2ccc(OC(F)F)cc2)c(F)c1 [Example 630] | 1100 | 5.2 |
| COCCn1cccc(N2C[C@@H](c3ccc(OC)cc3F)[C@H](NC(=O)c3ccc(OC(F)F)cc3)C2=O)c1=O [Example 81] | 2.7 | 2.2 |
| COc1cc(F)c([C@@H]2CN(c3c(Cl)ccn(C)c3=O)C(=O)[C@H]2NC(=O)c2ccc(OC(F)F)cc2)c(F)c1 [Example 286] | 130 | 8.5 |
| CCn1cc2c(c(N3C[C@@H](c4c(F)cc(OC)cc4F)[C@H](NC(=O)c4ccc(OC(F)F)cc4)C3=O)c1=O)CCCC2 [Example 663] | 1700 | 1.1 |

Now from value to compound:

| EC50 (human FPR1) [nM] | EC50 (human FPR2) [nM] | SMILES |
| --- | --- | --- |
| 18 | 9.1 | COc1cc(F)c([C@@H]2CN(c3c(C)ccn(CC4CCO4)c3=O)C(=O)[C@H]2NC(=O)c2ccc(OC(F)F)cc2)c(F)c1 (stereo partly shown) [Example 617] |
| 150 | 10 | COc1cc(F)c([C@@H]2CN(c3ccccc3P(C)(C)=O)C(=O)[C@H]2NC(=O)c2ccc(OC(F)F)cc2)c(F)c1 [Example 31] |
| 440 | 2.8 | COc1cc(F)c([C@H]2[C@H](NC(=O)c3ccc(OC(F)F)cc3)C(=O)N(c3cccc(N4CC[C@H](O)C4)n3)[C@H]2C)c(F)c1 [Example 568] |
| 1100 | 3.3 | COc1cc(F)c([C@@H]2CN(c3nccc(NC4CCOC4)c3C(F)(F)F)C(=O)[C@H]2NC(=O)c2ccc(Cl)cc2)c(F)c1 (stereo partly shown) [Example 125] |
| 17 | 4.4 | COc1cc(F)c([C@@H]2CN(c3c(C)ccn(C(F)(F)CO)c3=O)C(=O)[C@H]2NC(=O)c2ccc(OC(F)F)cc2)c(F)c1 [Example 454] |
| 0.3 | 1 | COc1ccc([C@@H]2CN(c3c(C)ccn(CC4CC4)c3=O)C(=O)[C@H]2NC(=O)c2ccc(OC(F)F)cc2)cc1 [Example 610] |
| 3800 | 9.1 | COc1ccnc(N2C(=O)[C@@H](NC(=O)c3ccc(Cl)cc3)[C@H](c3c(F)cc(OC)cc3F)[C@@H]2C)c1 [Example 432] |
| 9.3 | 11.8 | COc1cc(F)c([C@@H]2CN(c3c(C)ccn(C4CCNC4)c3=O)C(=O)[C@H]2NC(=O)c2ccc(OC(F)(F)F)cc2)c(F)c1 (stereo partly shown) [Example 613] |
| 1800 | 2.1 | COc1cc(F)c([C@@H]2CN(c3nccn(C4CC4)c3=O)C(=O)[C@H]2NC(=O)c2ccc(Cl)cc2)c(F)c1 [Example 546] |
| 1.8 | 4.8 | COc1ccc([C@@H]2CN(c3c(C)ccn(CC(F)F)c3=O)C(=O)[C@H]2NC(=O)c2ccc(OC(F)(F)F)cc2)c(F)c1 [Example 182] |
| 150 | 5.1 | COCC(CN)n1cccc(N2C[C@@H](c3c(F)cc(OC)cc3F)[C@H](NC(=O)c3ccc(OC(F)(F)F)cc3)C2=O)c1=O (stereo partly shown) [Example 194] |
| 280 | 15 | COc1cc(F)c([C@@H]2CN(c3cc(OC)ccc3F)C(=O)[C@H]2NC(=O)c2ccc(OC(F)(F)F)cc2)c(F)c1 [Example 8] |
| 1500 | 2.4 | COc1cc(F)c([C@H]2[C@H](NC(=O)c3ccc(OC(F)F)cc3)C(=O)N(c3cccc(C4CCCN(C)C4)n3)[C@H]2C)c(F)c1 (stereo partly shown) [Example 513] |
| 40 | 4.1 | COc1cc(F)c([C@@H]2CN(c3cccn4c(C)nnc34)C(=O)[C@H]2NC(=O)c2ccc(OC(F)F)cc2)c(F)c1 [Example 599] |
| 14 | 7.8 | COc1cc(F)c([C@@H]2CN(c3cccn(CC4CC4)c3=O)C(=O)[C@H]2NC(=O)c2ccc(OC(F)(F)F)cc2)c(F)c1 [Example 272] |
| 550 | 15 | COc1cc(F)c([C@H]2[C@H](NC(=O)c3ccc(OC(F)F)cc3)C(=O)N(c3cccc(N4CCOCC4)n3)[C@H]2C)c(F)c1 [Example 574] |
| > 5000 | 3.4 | COc1cc(C2CCNCC2)nc(N2C[C@@H](c3c(F)cc(OC)cc3F)[C@H](NC(=O)c3ccc(OC(F)F)cc3)C2=O)c1 [Example 534] |
| 18 | 7.5 | COc1cc(F)c([C@@H]2CN(c3c(C)ccn(CCO)c3=O)C(=O)[C@H]2NC(=O)c2ccc(OC(F)F)cc2)c(F)c1 [Example 262] |
| 1900 | 6.1 | COc1cc(F)c([C@@H]2CN(c3nccc(N4CCN(S(C)(=O)=O)CC4)c3C(F)(F)F)C(=O)[C@H]2NC(=O)c2ccc(Cl)cc2)c(F)c1 [Example 224] |
| 3 | 1.8 | COc1ccc([C@@H]2CN(c3cccn(CC(OC)C(F)(F)F)c3=O)C(=O)[C@H]2NC(=O)c2ccc(Cl)cc2)c(F)c1 (stereo partly shown) [Example 380] |
| 36 | 6.3 | CC(O)Cn1cccc(N2C[C@@H](c3ccc(Cl)cc3)[C@H](NC(=O)c3ccc(OC(F)F)cc3)C2=O)c1=O (stereo partly shown) [Example 409] |
| 1.7 | 1.2 | COCCn1ncc(C)c(N2C[C@@H](c3c(F)cc(OC)cc3F)[C@H](NC(=O)c3ccc(OC(F)F)cc3)C2=O)c1=O [Example 472] |
| 1200 | 5.7 | COc1cc(F)c([C@@H]2CN(c3cncn(C4CCOCC4)c3=O)C(=O)[C@H]2NC(=O)c2ccc(Cl)cc2)c(F)c1 [Example 542] |
| 83 | 7.4 | COc1cc(F)c([C@@H]2CN(c3cccn(CCF)c3=O)C(=O)[C@H]2NC(=O)c2ccc(OC(F)F)cc2)c(F)c1 [Example 258] |
| 20 | 9.4 | COc1cc(F)c([C@@H]2CN(c3c(C)ccn(CC4CCO4)c3=O)C(=O)[C@H]2NC(=O)c2ccc(OC(F)F)cc2)c(F)c1 (stereo partly shown) [Example 616] |
| 5 | 8 | COc1cc(F)c([C@@H]2CN(c3c(C)ccn(C4CC4)c3=O)C(=O)[C@H]2NC(=O)c2ccc(OC(F)F)cc2)c(F)c1 [Example 351] |
| 450 | 15 | COc1cc(F)c([C@@H]2CN(C3CCC3)C(=O)[C@H]2NC(=O)c2ccc(OC(F)(F)F)cc2)c(F)c1 [Example 335] |
| 12 | 3.3 | COc1cc(F)c([C@@H]2CN(c3c(C)ccn(CC(F)F)c3=O)C(=O)[C@H]2NC(=O)c2ccc(Cl)cc2)c(F)c1 [Example 653] |
